Here are results for 10 compounds from patent publication US20130143825A1, “COMPOUNDS FOR USE IN THE TREATMENT OF DISEASES BASED ON THE EXPRESSION OF TOXIC TRANSCRIPTS” (UNIVERSITAT DE VALENCIA, priority 2010, published 2013).

One assay relates to 2-AP-(CUG)23 RNA. Put plainly: 2-aminopurine fluorescence assay (hairpin opening). In kind it is biochemical. Particulars: for destructuration of CUG23 probe, comparative 2-aminopurine assay: 100 μM. As to the method:
Measurements of the fluorescence emitted (Y-axis), measured as relative fluorescence units (RFU), by 2-aminopurine in a (CUG)23 RNA (1 μM) in the presence of MblZF (0.1 μM, 1 μM, 2 μM and 5 μM) (A) or p10 (0.1 μM, 1 μM, 2 μM, 5 μM and 100 μM) (B), relative to the fluorescence emitted by the free RNA. p10 caused a 2.9-increase in the fluorescence of 2-AP at 100 μM, which indicates a change towards single-stranded. This effect was not observed when incubating the RNA with DMSO, or with the alanine scanning peptides with sequences: ppyawa and payawe (C).
In order to confirm whether said changes cause a loss of the hairpin loop structure, an experiment was performed using an RNA composed of 23 CUG repeats, wherein a guanine had been substituted with its analogue 2-aminopurine (2-AP-(CUG)23). When 2-AP is in a single-stranded environment, it emits fluorescence at 375 nm. […] However, upon increasing the concentration of p10 to 100 μM (RNA:peptide 1:100), the 2AP-(CUG)23 RNA underwent a conformational change, from double-stranded to single-stranded, with a 2.9-fold increase in the fluorescence emission of the molecule (FIG. 28B). In order to confirm the specificity of this effect, the same experiment was performed, incubating the alanine scanning peptides (payawe and ppyawa) with the 2-AP-(CUG)23 RNA at the same concentration as p10 (100 μM).
As may be observed in FIG. 29, in this example we use the 2-aminopurine assay in order to assay 4 peptides (p11, p5, p12 and p15) in addition to p10, obtained from the deconvolution of the combinatorial peptide library explained in this invention. […] The concentration used in all cases is 100 μM.

For assay [1], the system named is 103Y-Gal4/+;UAS-CTG(480)/+ flies. Put plainly: Lethality phenotype in pupae caused by expression of 480 CTG under 103Y-Gal4 (females born). The format is in vivo, Drosophila. On the set-up: key: —: - indicates that no females were born, in neither the control tubes and the treated tubes. The conditions noted are these: females born vs DMSO control.
Assay [2] shares this test system. The assay is described as above. The format is in vivo, Drosophila. The conditions noted are these: administered to larvae in the food; compared with p10. As to the method:
The 120 vials that make up the chemical library were individually assayed on the lethality phenotype in pupae caused by the expression of 480 CTG under the control of 103Y-Gal4 at a concentration of 80 μM. […] Thus, for positions O1, O2, O3, O4, O5 and O6 of the hexapeptide, a total of six, three, six, four, two and seven active amino acids were obtained, respectively (FIG. 2A). In order to perform the deconvolution, 10 of these 28 amino acids were selected, on the basis of their degree of activity in the biological assay (FIG. 2A). Finally, of the possible combinations, 16 sequences were selected to perform the synthesis of the defined hexapeptides (FIG. 2B). The selection of these 16 peptides was based on redundancy criteria between the physical and chemical properties of active amino acids in similar positions.
At 250 μM, the activity of the peptide decreased, possibly due to a toxic effect of the peptide at higher concentrations.
In order to determine the contribution of each of the p10 residues to their activity on CTG(480), an alanine scanning experiment was performed. These experiments are based on substituting every amino acid of the peptide with alanine and keeping the rest. Alanine is a small amino acid and, in general, not very active; this is why it is used for this type of studies. Since each alanine substitution examines the contribution of an individual amino acid, this experiment makes it possible, on the one hand, to evaluate whether p10 is susceptible to optimisation (in the event that a substitution increases the efficacy of the molecule), or to determine which amino acids are important for its function (in the event that a substitution decreases the activity thereof). The sequence of p10 allows for 5 substitutions; for this reason, 5 new hexapeptides were synthesised which were assayed in relation to the lethality phenotype in 103Y-Gal4; UAS-CTG(480)/+ flies and commercial food.

Another assay concerns FAM-(CUG)23 RNA. Put plainly: Fluorescence gel retardation assay with FAM-(CUG)23. In kind it is binding. The conditions noted are these: peptide 2.5 mM, RNA 60 nM. From the text:
The changes on the RNA caused by p10 in the FP assay are small, probably due to the low molecular weight of the molecule (less than 900 Da). For this reason, it was decided to supplement the study with gel retardation experiments. These assays are based on the differences in electrophoretic mobility between stable protein-nucleic acid complexes and their components separately. Since the FAM-(CUG)23 RNA was available, it was decided to prepare a fluorescence gel retardation assay. After determining the optimal quantity of RNA for detection (60 nM; FIG. 21A), the binding between the latter and MblZF was studied. Said binding caused both a decrease in the intensity of the band corresponding to the free RNA in the gel and the appearance of a signal in the interior of the gel wells (bound RNA).
In order to determine whether p10 could bind to CUG RNA molecules, it was decided to perform a similar gel retardation experiment between the peptide and FAM-(CUG)23. p10 bound to the RNA, with part of the complex being retained in the well, as described for MblZF. […] This affinity decreased upon decreasing the size of the repeats (FAM-(CUG)4, FIG. 24C). […] This could be due either to a synergic effect between the protein and the peptide or to an additive effect if both should bind to different RNA sites.
In order to study the specificity of the binding observed between p10 and the CUG repeats, two experiments were performed. In the first place, the five hexapeptides generated during the alanine scanning were assayed. […] In the second place, we studied the effect of p10 on other RNA and DNA sequences, both double-stranded and single-stranded, fluorescently labelled with carboxyfluorescein (FAM) (FIG. 25C).

Assay [3] deals with MBNL1 binding to the CUG repeats. The conditions noted are these: in vitro; cited from earlier work.
For a further assay, the system named is CUG60 RNA. Nature of the assay: Circular dichroism of CUG60 RNA. Particulars: RNA 1 μM, p10 0.1-20 μM, MblZF 1 and 1.5 μM, ppyawa 0.5 and 1 μM, payawe 1 μM. In kind it is binding. The protocol:
However, this effect was not reverted when the RNA was incubated jointly with MblZF and p10, regardless of the order of addition (C).
In order to study possible changes in the secondary structure of RNA induced by p10, in the first place we performed a circular dichroism (CD) experiment, using an RNA with unlabelled CUG repeats (CUG60). The circular dichroism of nucleic acids is caused by the stacking of the bases that make up the sequence thereof. Consequently, when a molecule binds to RNA, affecting the structure thereof, a change is detected in its CD spectrum. […] When we incubated the RNA with increasing concentrations of the peptide of SEQ ID NO: 10 (0.1 μM, 0.5 μM, 1 μM, 10 μM and 20 μM), a similar effect was observed (FIG. 27B). During the readings, the RNA was kept in the cuvette inside the dichrograph at 10° C. Throughout the 3 hours of each experiment, it was possible for the RNA to have been degraded; this would explain the decrease in the intensity of the signal observed. In order to rule out this possibility, the CD spectrum of CUG60 RNA was measured at times 0 and 3 h, having kept the CUG60 RNA at 10° C. at all times.

Non-standard residues stand in square brackets, D forms with d. No end group written: not given here.

For “p5: defined hexapeptide obtained following deconvolution of the D-amino acid combinatorial library ([dC][dQ][dY][dA][dQ][dE])”, in the assay with 2-AP-(CUG)23 RNA, the “destructuration of CUG23 probe, comparative 2-aminopurine assay” value is “significant levels of specificity and efficacy”. In addition, the “Treated born/Control born” value in assay [1] (25 μM) was found to be 2.0.
On to apyawe, for which the “activity on lethality phenotype (number of females), alanine scanning” value (“activity on lethality phenotype” for short) in assay [2] is “loss of activity”. Moreover, the “significant binding to FAM-(CUG)23 RNA” value in the assay with FAM-(CUG)23 RNA is “None”.
The corresponding values for ppaawe are “loss of activity” and “None”.
With `CN1C(=Cc2cc[n+](C)c3ccccc23)Sc2ccccc21` [thiazole orange], the “binding of MBNL1 to the CUG repeats” value in assay [3] is “inhibited the binding of MBNL1”.
Regarding “p15: defined hexapeptide obtained following deconvolution of the D-amino acid combinatorial library ([dP][dQ][dY][dT][dQ][dE])”, the “destructuration of CUG23 probe, comparative 2-aminopurine assay” value in the assay with 2-AP-(CUG)23 RNA was “significant levels of specificity and efficacy”. In addition, in assay [1] (40 μM), the “Treated born/Control born” value amounted to 0.5.
As to “p6: defined hexapeptide obtained following deconvolution of the D-amino acid combinatorial library ([dC][dQ][dY][dA][dW][dE])”, in assay [1] (25 μM), the “Treated born/Control born” value is listed as “—”.
As for `NC[C@@H]1O[C@H](O[C@H]2[C@@H](O)[C@H](O[C@@H]3[C@@H](O)[C@H](N)C[C@H](N)[C@H]3O[C@H]3O[C@H](CN)[C@@H](O)[C@H](O)[C@H]3N)O[C@@H]2CO)[C@H](N)[C@@H](O)[C@@H]1O` [neomycin B], the “binding of MBNL1 to the CUG repeats” value in assay [3] was “inhibited the binding of MBNL1”.
As to payawe, the “activity on lethality phenotype” value in assay [2] is “loss of activity”. For the same compound, the “significant binding to FAM-(CUG)23 RNA” value in the assay with FAM-(CUG)23 RNA is listed as “None”. The entries for the “change of circular dichroism spectrum of CUG60” value with CUG60 RNA and in the assay on CUG60 RNA (listed as p29.4) were “did not occur” and “did not change the RNA spectrum”, respectively. Further, in the assay on 2-AP-(CUG)23 RNA (peptide 100 μM, RNA 1 μM (1:100)), the “increase in the fluorescence emission of 2-AP-(CUG)23” value was “None of these peptides caused changes”.
On to “p8: defined hexapeptide obtained following deconvolution of the D-amino acid combinatorial library ([dC][dQ][dY][dT][dW][dE])”, for which the “Treated born/Control born” value in assay [1] (57 μM) was determined as 0.9.
As for ppyaae, in assay [2], the “activity on lethality phenotype” value is “loss of activity”. Besides, in the assay with FAM-(CUG)23 RNA, the “significant binding to FAM-(CUG)23 RNA” value is listed as “None”.
